Key:
[1] = Effect of cyclodextrins on non-dihydrate azithromycin form conversion in constituted POS formulation II; type: physicochemical; settings: 24 hours room temperature
Protocol: The effect of adding a complexing agent such as cyclodextrin on the stability of non-dihydrate azithromycin forms G, M and F against conversion in a constituted POS formulation were evaluated.
Forms G, M and F of azithromycin were formulated into POS formulation II. Various cyclodextrins were added to the POS formulation II and the resulting samples were constituted with 18 mls of water. The suspensions were then stored for 24 hours at room temperature. At the end of the storage time, the suspensions were filtered and the recovered solids were weighed and analyzed by SS-NMR to quantify the presence of azithromycin dihydrate (form A). The control samples were formulated into formulation II with non-dihydrate azithromycin form G, M and F without cyclodextrins and were constituted with water, stored, filtered and analyzed identically to the cyclodextrin samples described above. A control, which had no cyclodextrin was run with each series of experiments. The SS-NMR data are presented in Tables 10, 11, 12 and the results are given as weight percent (% wt), of the recovered azithromycin sample.

[2] = Stability of non-dihydrate azithromycin in suspension (POS formulation II or bulk drug in water); SS-NMR quantification of form A; type: physicochemical
Protocol: The stability of various forms of non-dihydrate azithromycin, in water and in flavored oral suspensions, was evaluated. Specifically, non-dihydrate azithromycin forms G, M, N, F and J were separately used in POS formulation II. These POS formulations were constituted by mixing with 18 mls of water. The suspensions were then stored for 1, 5 and 10 days at either 5° C. or 30° C. Suspensions of bulk azithromycin forms G, M, N, F and J were also constituted with 18 mls of water and stored under the same conditions.
Upon conclusion of the storage time period the suspensions were filtered and suspended solids collected as described previously.

% Form A ([1]; POS Formulation II + Hydroxypropyl β-cyclodextrin 1.2 % w/w, Series 2, 18 mls water): 4.0%
% Form A ([1]; POS Formulation II + Hydroxypropyl β-cyclodextrin 11.1 % w/w, Series 3, 18 mls water): 4.9%
% Form A ([1]; POS Formulation II + Sulfobutylether β-cyclodextrin 1.2 % w/w, Series 2, 18 mls water): 14.4%
% Form A ([1]; POS Formulation II + Sulfobutylether β-cyclodextrin 11.1 % w/w, Series 3, 18 mls water): 7.0%
% Form A ([1]; POS Formulation II + α-cyclodextrin 1.2 % w/w, Series 1, 18 mls water): 4.8%
% Form A ([1]; POS Formulation II + β-cyclodextrin 1.2 % w/w, Series 2, 18 mls water): 8.3%
% Form A ([1]; POS Formulation II + γ-cyclodextrin 1.2 % w/w, Series 1, 18 mls water): 13.4%
% Form A ([1]; POS Formulation II, no cyclodextrin (Control), Series 1, 18 mls water): 68.3%
% Form A ([1]; POS Formulation II, no cyclodextrin (Control), Series 2, 18 mls water): 46.5%
% Form A ([1]; POS Formulation II, no cyclodextrin (Control), Series 3, 18 mls water): 67.9%
% A (azithromycin dihydrate, form A, of recovered azithromycin) ([2]; Bulk Drug in 18 mls water, 5° C., Day 1): 1%
% A (azithromycin dihydrate, form A, of recovered azithromycin) ([2]; Bulk Drug in 18 mls water, 5° C., Day 5): 6%
% A (azithromycin dihydrate, form A, of recovered azithromycin) ([2]; Bulk Drug in 18 mls water, 5° C., Day 10): 12%
% A (azithromycin dihydrate, form A, of recovered azithromycin) ([2]; Bulk Drug in 18 mls water, 30° C., Day 1): 3%
% A (azithromycin dihydrate, form A, of recovered azithromycin) ([2]; Bulk Drug in 18 mls water, 30° C., Day 5): 26%
% A (azithromycin dihydrate, form A, of recovered azithromycin) ([2]; Bulk Drug in 18 mls water, 30° C., Day 10): 73%
% A (azithromycin dihydrate, form A, of recovered azithromycin) ([2]; Formulation II constituted with 18 mls water, 5° C., Day 1): 72%
% A (azithromycin dihydrate, form A, of recovered azithromycin) ([2]; Formulation II constituted with 18 mls water, 5° C., Day 5): 75%
% A (azithromycin dihydrate, form A, of recovered azithromycin) ([2]; Formulation II constituted with 18 mls water, 5° C., Day 10): 78%
% A (azithromycin dihydrate, form A, of recovered azithromycin) ([2]; Formulation II constituted with 18 mls water, 30° C., Day 1): 82%
% A (azithromycin dihydrate, form A, of recovered azithromycin) ([2]; Formulation II constituted with 18 mls water, 30° C., Day 5): 74%
% A (azithromycin dihydrate, form A, of recovered azithromycin) ([2]; Formulation II constituted with 18 mls water, 30° C., Day 10): 76%
Compound: CC[C@H]1OC(=O)[C@H](C)[C@@H](O[C@H]2C[C@@](C)(OC)[C@@H](O)[C@H](C)O2)[C@H](C)[C@@H](O[C@@H]2O[C@H](C)C[C@H](N(C)C)[C@H]2O)[C@](C)(O)C[C@@H](C)CN(C)[C@H](C)[C@@H](O)[C@]1(C)O [Form G, azithromycin sesquihydrate]
